Source: ChEMBL document CHEMBL1201862, “PubChem BioAssay data set” (2004)
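Grown in 96-well plates, cells were treated for 48 hours with each compound at five concentrations. Insufficient inhibition: endpoint recorded as highest concentration tested. GI50: concentration for 50% inhibition of growth.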 Calls of active or inactive are those of the source. Rule as the data show it: active = GI50 up to about 1.1 µM and inactive = higher.

Columns and labels:
Experiment in all cases: NCI tumour cell line growth inhibition, 48 h
786-0 = system: 786-0
A498 = system: A498
A549 = system: A549
ACHN = system: ACHN
CAKI-1 = system: CAKI-1
CCRF-CEM = system: CCRF-CEM
COLO 205 = system: COLO 205
DLD-1 = system: DLD-1
DMS-114 = system: DMS-114
DMS-273 = system: DMS-273
EKVX = system: EKVX
HCC 2998 = system: HCC 2998
HCT-15 = system: HCT-15
HL-60 = system: HL-60
HOP-18 = system: HOP-18
HOP-62 = system: HOP-62
HOP-92 = system: HOP-92
HT-29 = system: HT-29
IGROV-1 = system: IGROV-1
K562 = system: K562
KM-20L2 = system: KM-20L2
KM12 = system: KM12
LOX IMVI = system: LOX IMVI
LXFL 529 = system: LXFL 529
M14 = system: M14
M19-MEL = system: M19-MEL
MOLT-4 = system: MOLT-4
Malme-3M = system: Malme-3M
NCI-H226 = system: NCI-H226
NCI-H23 = system: NCI-H23
NCI-H460 = system: NCI-H460
NCI-H522 = system: NCI-H522
OVCAR-3 = system: OVCAR-3
OVCAR-4 = system: OVCAR-4
OVCAR-5 = system: OVCAR-5
RPMI-8226 = system: RPMI-8226
RXF 631 = system: RXF 631
SF-268 = system: SF-268
SF-295 = system: SF-295
SF-539 = system: SF-539
SK-MEL-28 = system: SK-MEL-28
SK-MEL-2 = system: SK-MEL-2
SK-MEL-5 = system: SK-MEL-5
SK-OV-3 = system: SK-OV-3
SNB-19 = system: SNB-19
SNB-78 = system: SNB-78
SW-620 = system: SW-620
TK-10 = system: TK-10
U-251 = system: U-251
UACC-257 = system: UACC-257
UACC-62 = system: UACC-62
UO-31 = system: UO-31
XF498 = system: XF498
OVCAR-8 = system: OVCAR-8
RXF 393 = system: RXF 393
SN12C = system: SN12C
SNB-75 = system: SNB-75

SMILES: O=[N+]([O-])c1ccc2nc3ccscc-3c2c1
- GI50 (786-0): 19.5 µM (inactive)
- GI50 (A498): 8.36 µM (inactive)
- GI50 (A549): 18.3 µM (inactive)
- GI50 (ACHN): 13.6 µM (inactive)
- GI50 (CAKI-1): 13 µM (inactive)
- GI50 (CCRF-CEM): 5 µM (inactive)
- GI50 (COLO 205): 18.5 µM (inactive)
- GI50 (DLD-1): 9.64 µM (inactive)
- GI50 (DMS-114): 16.9 µM (inactive)
- GI50 (DMS-273): 12.2 µM (inactive)
- GI50 (EKVX): 9.93 µM (inactive)
- GI50 (HCC 2998): 15.2 µM (inactive)
- GI50 (HCT-15): 15.2 µM
- GI50 (HL-60): 4.81 µM (inactive)
- GI50 (HOP-18): 14.1 µM (inactive)
- GI50 (HOP-62): 17.9 µM (inactive)
- GI50 (HOP-92): 10.8 µM (inactive)
- GI50 (HT-29): 22.6 µM (inactive)
- GI50 (IGROV-1): 27.4 µM (inactive)
- GI50 (K562): 4.6 µM (inactive)
- GI50 (KM-20L2): 25.2 µM (inactive)
- GI50 (KM12): 7.52 µM (inactive)
- GI50 (LOX IMVI): 18.7 µM (inactive)
- GI50 (LXFL 529): 13.7 µM (inactive)
- GI50 (M14): 16 µM (inactive)
- GI50 (M19-MEL): 20.1 µM (inactive)
- GI50 (MOLT-4): 5.87 µM (inactive)
- GI50 (Malme-3M): 29 µM (inactive)
- GI50 (NCI-H226): 20.9 µM (inactive)
- GI50 (NCI-H23): 11.7 µM (inactive)
- GI50 (NCI-H460): 14.1 µM (inactive)
- GI50 (NCI-H522): 12.4 µM (inactive)
- GI50 (OVCAR-3): 7.94 µM (inactive)
- GI50 (OVCAR-4): 15.5 µM (inactive)
- GI50 (OVCAR-5): 35.3 µM (inactive)
- GI50 (RPMI-8226): 7.08 µM (inactive)
- GI50 (RXF 631): 14.8 µM (inactive)
- GI50 (SF-268): 14.7 µM (inactive)
- GI50 (SF-295): 24.2 µM (inactive)
- GI50 (SF-539): 8.49 µM (inactive)
- GI50 (SK-MEL-28): 27.8 µM (inactive)
- GI50 (SK-MEL-2): 6.75 µM (inactive)
- GI50 (SK-MEL-5): 7.31 µM (inactive)
- GI50 (SK-OV-3): 30.7 µM (inactive)
- GI50 (SNB-19): 6.98 µM (inactive)
- GI50 (SNB-78): 23 µM (inactive)
- GI50 (SW-620): 7.08 µM (inactive)
- GI50 (TK-10): 20.9 µM (inactive)
- GI50 (U-251): 7.76 µM (inactive)
- GI50 (UACC-257): 14.3 µM (inactive)
- GI50 (UACC-62): 21.4 µM (inactive)
- GI50 (UO-31): 8.13 µM (inactive)
- GI50 (XF498): 17.1 µM (inactive)

SMILES: COc1cc(C(=O)CC2(O)C(=O)Nc3c(Cl)cc(Cl)cc32)ccc1O (stereo not given)
- GI50 (786-0): > 100 µM (inactive)
- GI50 (A549): 55 µM (inactive)
- GI50 (ACHN): 57.1 µM (inactive)
- GI50 (CAKI-1): 56.2 µM (inactive)
- GI50 (CCRF-CEM): 36.6 µM (inactive)
- GI50 (COLO 205): 28.7 µM (inactive)
- GI50 (DLD-1): 41.9 µM (inactive)
- GI50 (DMS-114): 37.8 µM (inactive)
- GI50 (DMS-273): 53 µM (inactive)
- GI50 (EKVX): 94 µM (inactive)
- GI50 (HCC 2998): 31.5 µM (inactive)
- GI50 (HCT-15): 64 µM
- GI50 (HL-60): 36.2 µM (inactive)
- GI50 (HOP-18): 34.4 µM (inactive)
- GI50 (HOP-62): 37.5 µM (inactive)
- GI50 (HOP-92): 23.8 µM (inactive)
- GI50 (HT-29): 29.4 µM (inactive)
- GI50 (K562): 35.5 µM (inactive)
- GI50 (KM-20L2): 61.4 µM (inactive)
- GI50 (KM12): 78.3 µM (inactive)
- GI50 (LOX IMVI): > 100 µM (inactive)
- GI50 (LXFL 529): 27.9 µM (inactive)
- GI50 (M14): 66.7 µM (inactive)
- GI50 (MOLT-4): 26.3 µM (inactive)
- GI50 (Malme-3M): > 100 µM (inactive)
- GI50 (NCI-H226): 40 µM (inactive)
- GI50 (NCI-H23): 59.2 µM (inactive)
- GI50 (NCI-H460): 75.7 µM (inactive)
- GI50 (NCI-H522): 47.8 µM (inactive)
- GI50 (OVCAR-3): 46.3 µM (inactive)
- GI50 (OVCAR-4): 60.8 µM (inactive)
- GI50 (OVCAR-5): > 100 µM (inactive)
- GI50 (OVCAR-8): 63 µM (inactive)
- GI50 (RPMI-8226): 24.4 µM (inactive)
- GI50 (RXF 393): 27.5 µM (inactive)
- GI50 (RXF 631): > 100 µM (inactive)
- GI50 (SF-268): 43.8 µM (inactive)
- GI50 (SF-295): 69.2 µM (inactive)
- GI50 (SK-MEL-28): > 100 µM (inactive)
- GI50 (SK-MEL-2): 87.1 µM (inactive)
- GI50 (SK-MEL-5): 27.6 µM (inactive)
- GI50 (SK-OV-3): 14.9 µM (inactive)
- GI50 (SN12C): > 100 µM (inactive)
- GI50 (SNB-19): 76.7 µM (inactive)
- GI50 (SNB-75): 24.2 µM (inactive)
- GI50 (SNB-78): 87.9 µM (inactive)
- GI50 (SW-620): 71.6 µM (inactive)
- GI50 (TK-10): > 100 µM (inactive)
- GI50 (U-251): 69 µM (inactive)
- GI50 (UACC-257): 43.6 µM (inactive)
- GI50 (UO-31): 37.9 µM (inactive)
- GI50 (XF498): 48.3 µM (inactive)
